# Results published in patent US20070155679A1, “USE OF BR[…] THE TREATMENT OF […] ASSOCIATED WITH H[…] NOVEL MEDICAMENT COMBINATIONS” (priority 2000, published 2007).
# Tested on: hypertrophic cardiomyopathy
# Assay: Cat with severe hypertrophic cardiomyopathy treated with cilobradine
# Assay type: in vivo
# Settings: 0.3 mg/kg per os, 2x daily
# Source text: The new use of the bradycardiac substances according to the invention was investigated with the if channel blocker cilobradine by way of example, using the following method:
# The hypertrophic cardiomyopathy in the cat serves as a model for the corresponding disease in humans (Kittleson et al., Circulation 91, 3172-3180 (1999)).
structure (smiles),measurement,setting,value
COc1ccc(CCN2CCC[C@H](CN3CCc4cc(OC)c(OC)cc4CC3=O)C2)cc1OC [cilobradine],"clinical symptoms (relief from pain, normal ECG, return of normal physiological activity pattern)",cat with severe hypertrophic cardiomyopathy,significant improvement in clinical symptoms
same,myocardial hypertrophy at follow-up,"cat, follow-up after one year and after about 2 years' treatment",regression in myocardial hypertrophy
